In assay [1] the test system is Escherichia coli. Nature of the assay: Antimicrobial activity against Escherichia coli at 50 ug/disk. Format: functional. The note with it: read-out: IZ.
In a further assay the test system is Umbelopsis ramanniana. In words: Antimicrobial activity against Mortierella ramanniana. Type of assay: functional, organism-based.
In assay [2] the test system is Escherichia coli. Nature of the assay: Antimicrobial activity against Escherichia coli by […]. Format: functional, organism-based.

Calls of active or inactive are those of the source. No cut-off for these calls is given here.

For the molecule `CCCCCCCC(C)CCCCCCCCOC[C@@H](O)COP(=O)(O)O[C@@H]1[C@@H](O)[C@H](O)[C@@H](O)[C@H](O)[C@@H]1O` (some centres undefined), the zone of inhibition at 50 µg/disc with Escherichia coli [1] was 12 mm. In the assay with Umbelopsis ramanniana, the result was inactive.

On to `CCCCCCC1C(C)C1CCCCCCCOC[C@@H](O)COP(=O)(O)O[C@@H]1[C@@H](O)[C@H](O)[C@@H](O)[C@H](O)[C@@H]1O` (some centres undefined), for which the outcome in the assay on Escherichia coli [2] was Active. Also, the result with Umbelopsis ramanniana was inactive.

Values taken from ChEMBL document CHEMBL1155698, “Two new antimicrobial lysoplasmanylinositols from the marine sponge Theonella swinhoei” (2001).
